According to PubChem BioAssay AID330 (DTP/NCI, 2004):
“And” between values parts separate entries of the source, which are not always exact repeats. Equal entries are not always repeated. Inconclusive results and toxic doses are left out. How the source made its calls: active means survival T/C of 150% or more; inactive means T/C below 125% in these data. Square brackets hold non-standard residues; d marks the D form. Peptide text beside a SMILES is read from it. ξ: configuration not given here. ξE = NC(CCC(=O)O)C(=O)O

Tested on: P388 leukemia ip, CD2F1 mice, survival T/C
Assay: NCI In Vivo Anticancer Drug Screen. Data for tumor model P388 Leukemia (intraperitoneal) in CD2F1 (CDF1) mice
Settings: endpoint: median survival time, higher = longer survival
How it was run: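 Mice carrying the transplanted tumor received test compound or vehicle. Survival was recorded in each group, and the value is the treated-group measurement divided by that of the vehicle-treated control group.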

[1] = dose: 100.0 mg/kg/injection, schedule: Q04DX002 (ip), vehicle: saline with Tween-80

Measured: T/C

O=NN(CCF)C(=O)NC1CCS(=O)(=O)CC1
active: dose: 1.25 mg/kg/injection, schedule: Q04DX003 (ip), vehicle: saline 177 % of control | dose: 2.5 mg/kg/injection, schedule: Q01DX009 (ip), vehicle: saline 220 % of control | dose: 2.5 mg/kg/injection, schedule: Q04DX003 (ip), vehicle: saline 250 % of control | dose: 5.0 mg/kg/injection, schedule: Q01DX009 (ip), vehicle: saline 300 % of control | dose: 5.0 mg/kg/injection, schedule: Q04DX003 (ip), vehicle: saline with Tween-80 240 % of control | dose: 5.0 mg/kg/injection, schedule: Q04DX003 (ip), vehicle: saline 272 % of control | dose: 6.6 mg/kg/injection, schedule: Q04DX003 (ip), vehicle: saline with Tween-80 280 % of control | dose: 10.0 mg/kg/injection, schedule: Q01DX009 (ip), vehicle: saline 300 % of control | dose: 10.0 mg/kg/injection, schedule: Q04DX003 (ip), vehicle: saline with Tween-80 272 % of control and 285 % of control | dose: 15.0 mg/kg/injection, schedule: Q04DX003 (ip), vehicle: saline with Tween-80 285 % of control

CSc1nccn[n+]1C
inactive: dose: 100.0 mg/kg/injection, schedule: Q01DX001 (ip), vehicle: saline 112 % of control | dose: 200.0 mg/kg/injection, schedule: Q01DX001 (ip), vehicle: saline 111 % of control

C[P+]1(CCc2ccc(Cl)cc2)CC=CC1
inactive: dose: 25.0 mg/kg/injection, schedule: Q04DX002 (ip), vehicle: saline 101 % of control | dose: 50.0 mg/kg/injection, schedule: Q04DX002 (ip), vehicle: saline 101 % of control

CCCCCCCCC1SC1CCCCCCCCOC(=O)CCCCCCCC1SC1CCCCCCCC (stereo unspecified)
inactive: dose: 100.0 mg/kg/injection, schedule: Q01DX001 (ip), vehicle: saline with Tween-80 95 % of control | dose: 200.0 mg/kg/injection, schedule: Q01DX001 (ip), vehicle: saline with Tween-80 95 % of control | dose: 400.0 mg/kg/injection, schedule: Q01DX001 (ip), vehicle: saline with Tween-80 95 % of control

COc1ccc(CN2C(=O)C(Cl)=C(Cl)C2=O)c(OC)c1
inactive: dose: 60.0 mg/kg/injection, schedule: Q01DX005 (ip), vehicle: saline with Tween-80 100 % of control | dose: 120.0 mg/kg/injection, schedule: Q01DX005 (ip), vehicle: saline with Tween-80 94 % of control

NCC(=O)NCC(=O)NC(CCC(=O)O)C(=O)O (stereo not drawn) (H-Gly-Gly-[ξE]-OH)
inactive: dose: 50.0 mg/kg/injection, schedule: Q01DX005 (ip), vehicle: saline 100 % of control | dose: 100.0 mg/kg/injection, schedule: Q01DX005 (ip), vehicle: saline 101 % of control | dose: 200.0 mg/kg/injection, schedule: Q01DX005 (ip), vehicle: saline 104 % of control

S=C(SCc1ccccc1)N1CCN(C(=S)SCc2ccccc2)CC1
inactive: dose: 50.0 mg/kg/injection, schedule: Q01DX009 (ip), vehicle: saline with Tween-80 89 % of control | dose: 100.0 mg/kg/injection, schedule: Q01DX009 (ip), vehicle: saline with Tween-80 91 % of control | dose: 200.0 mg/kg/injection, schedule: Q01DX009 (ip), vehicle: saline with Tween-80 91 % of control

CN(C)CCSc1sc(N)nc1-c1ccccc1
inactive: dose: 50.0 mg/kg/injection, schedule: Q01DX009 (ip), vehicle: saline 100 % of control | dose: 100.0 mg/kg/injection, schedule: Q01DX009 (ip), vehicle: saline 98 % of control | dose: 200.0 mg/kg/injection, schedule: Q01DX009 (ip), vehicle: saline 114 % of control

O=C(O)P(=O)(O)O
inactive: dose: 50.0 mg/kg/injection, schedule: Q01DX009 (ip), vehicle: water 95 % of control | dose: 100.0 mg/kg/injection, schedule: Q01DX009 (ip), vehicle: water 103 % of control | dose: 200.0 mg/kg/injection, schedule: Q01DX009 (ip), vehicle: water 100 % of control

ClCc1ccc(Oc2ccc(CCl)cc2)cc1
inactive: dose: 12.5 mg/kg/injection, schedule: Q01DX009 (ip), vehicle: Klucel (hydroxypropylcellulose) (HPC) 120 % of control

CC(C)(C)OC(=O)NC(Cc1ccc(OCc2ccccc2)cc1)C(=O)O (stereo unspecified)
inactive: dose: 50.0 mg/kg/injection, schedule: Q01DX005 (ip), vehicle: saline with Tween-80 104 % of control | dose: 100.0 mg/kg/injection, schedule: Q01DX005 (ip), vehicle: saline with Tween-80 106 % of control | dose: 200.0 mg/kg/injection, schedule: Q01DX005 (ip), vehicle: saline with Tween-80 97 % of control

CSC1SC(C#N)=C(N)C1[n+]1ccccc1 (stereo unspecified)
inactive: dose: 25.0 mg/kg/injection, schedule: Q04DX002 (ip), vehicle: saline with Tween-80 105 % of control | dose: 50.0 mg/kg/injection, schedule: Q04DX002 (ip), vehicle: saline with Tween-80 105 % of control | [1] 104 % of control

COc1ccccc1C1c2cc3c(cc2OC(C)(N2CCCC2)C1C)OCO3 (stereo unspecified)
inactive: [1] 96 % of control | dose: 200.0 mg/kg/injection, schedule: Q04DX002 (ip), vehicle: saline with Tween-80 102 % of control | dose: 400.0 mg/kg/injection, schedule: Q04DX002 (ip), vehicle: saline with Tween-80 99 % of control
